The values that follow come from patent EP0052564A1, “Derivatives of 2-thiazolyl-oxamic acid substituted in position 4 by a thienyl or furyl radical, their preparation and use as pharmaceutical preparations” (PIERRE FABRE S.A., priority 1980, dated 1982).

This data set in a line: Solubility (in water, ethanol, methyl pyrrolidone). The class given is physicochemical. As to conditions: for Solubilités : dans l'éthanol: ethanol; for Solubilités : dans la méthyl pyrrolidone: methyl pyrrolidone; for Solubilités : dans l'eau: water.

In the case of `CCOC(=O)C(=O)Nc1nc(-c2cccs2)cs1` [Exemple 1, (α thienyl-4 thiazolyl-2) oxamate d'éthyle], the “Solubilités : dans l'éthanol” value amounted to 1%, the “Solubilités : dans la méthyl pyrrolidone” value stood at 50% and the “Solubilités : dans l'eau” value is recorded as “insoluble”.
Regarding `O=C(O)C(=O)Nc1nc(-c2cccs2)cs1` [Exemple 2, Acide (α thienyl-4 thiazolyl-2) oxamique], the “Solubilités : dans la méthyl pyrrolidone” value came out at 50% and the “Solubilités : dans l'eau” value is “insoluble”.
On to `O=C(O)C(=O)Nc1nc(-c2cccs2)cs1` [Exemple 3, (α thienyl-4 thiazolyl-2) oxamate de sodium], for which the “Solubilités : dans la méthyl pyrrolidone” value is listed as 15% and the “Solubilités : dans l'eau” value is recorded as “insoluble”.
In the same order, the values of `CCOC(=O)C(=O)Nc1nc(-c2ccsc2)cs1` [Exemple 6, ( β thienyl-4 thiazolyl-2) oxamate d'éthyle] are 50% and “insoluble”.
`CCOC(=O)C(=O)Nc1nc(-c2ccco2)cs1` [Exemple 7, (α furyl-4 thiazolyl-2) oxamate d'éthyle]: the “Solubilités : dans l'éthanol” value worked out at 3%, the “Solubilités : dans la méthyl pyrrolidone” value is given as 50% and the “Solubilités : dans l'eau” value is “insoluble”.
`O=C(O)C(=O)Nc1nc(-c2ccco2)cs1` [Exemple 8, Acide (α furyl-4 thiazolyl-2) oxamique]: the “Solubilités : dans la méthyl pyrrolidone” value is given as 25% and the “Solubilités : dans l'eau” value is listed as “insoluble”.
In the same order, the values of “(α thienyl-4 thiazolyl-2) oxamate d'éthanolamine [Exemple 5]” are 15% and “insoluble”.
Turning to “(α thienyl-4 thiazolyl-2) oxamate de zinc [Exemple 4]”, the “Solubilités : dans la méthyl pyrrolidone” value was determined as 50% and the “Solubilités : dans l'eau” value is reported as “insoluble”.
